From US20250064762A1, “A SUBSTITUTED AROMATIC DICARBONIC ACID AMIDE AS AN INHIBITOR OF THE FERROPTOSIS SUPPRESSOR PROTEIN-1 (FSP1)” (JULIUS-MAXIMILIANS-UNIVERSITÄT WÜRZBURG, priority 2021, published 2025)
“Also recorded” adds a separate entry of the source.

Tests used:
[1] = system: HT1080 FSP1-KO cells reconstituted with either FSP1-WT or FSP1-G2A; test: FIN56-induced ferroptosis in FSP1-KO cells reconstituted with FSP1-WT or FSP1-G2A; type: cell-based, human; settings: iFSP1 10 μM, CPBA 100 μM
Protocol: The following HT1080 fibrosarcoma cell lines were generated using CRISPR/Cas9 technology, as previously described (Doll et al., 2019): HT1080 GPX4-knockout (KO) cells (maintained in the presence of 100 μM α-tocopherol); HT1080 GPX4 knockout cells overexpressing FSP1 (GPX4-KO/FSP1-OE); GPX4-KO cells overexpressing FSP1 and re-expressing GPX4 (GPX4-KO/FSP1-OE/GPX4-OE); HT1080 FSP1-WT or FSP1-KO cells; and HT1080 FSP1-KO cells reconstituted with either FSP1-WT or FSP1-G2A. LOX-IMVI (BRAF V600E heterozygous human melanoma cells) expressing either the Venus mock vector or FSP1-Venus (Doll et al., 2019) were grown in RPMI-1640 supplemented with 10% FCS, 2 mM L-glutamine and Pen/Strep.
In order to study the effect of FSP1 membrane targeting on iFSP1 or CPBA-dependent ferroptosis sensitization, HT1080 FSP1-KO cells reconstituted with either FSP1-WT or the membrane binding-incompetent myristoylation mutant FSP1-G2A were incubated with serial FIN56-dilutions in the absence or presence of the DMSO solvent control, iFSP1 (10 μM), or CPBA (100 μM) (see FIG. 18A).

murine FSP1 = target: T1, murine FSP1 (Mus musculus, UniProt Q8BUE4); test: In vitro FSP1 oxidoreductase (NADH consumption) assay, murine FSP1; type: biochemical; settings: resazurine or coQ1 as electron acceptor
T1 construct: His6 (N, cleaved yes); made in house; host or cells: Escherichia coli BL21 pG-Tf2
T1 sequence (Q8BUE4 1-373): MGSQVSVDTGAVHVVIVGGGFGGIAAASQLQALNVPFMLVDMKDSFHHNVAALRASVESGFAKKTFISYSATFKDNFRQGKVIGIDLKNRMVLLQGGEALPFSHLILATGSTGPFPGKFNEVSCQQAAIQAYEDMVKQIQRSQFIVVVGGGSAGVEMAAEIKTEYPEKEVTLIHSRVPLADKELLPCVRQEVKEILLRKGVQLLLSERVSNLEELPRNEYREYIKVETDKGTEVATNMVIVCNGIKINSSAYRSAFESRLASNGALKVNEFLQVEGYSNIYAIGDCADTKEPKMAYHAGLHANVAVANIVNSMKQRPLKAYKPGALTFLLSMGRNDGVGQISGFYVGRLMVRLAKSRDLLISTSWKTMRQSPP
Protocol: (§1) FSP1 activity assays were performed using recombinant, purified murine or human FSP1, NADH, and resazurine or coenzyme-Q1 (coQ1) as electron acceptor molecules. The following conditions were used: 200 μM resazurine were reduced with 750 nM mFSP1 or 150 nM hFSP1; 100 μM coQ1 was reduced with 400 nM mFSP1; and 137 μM coQ1 were reduced with 200 nM hFSP1. The consumption of NADH (500 μM) was measured at 340 nm in phosphate-buffered saline (80 mM Na3PO4, 300 mM NaCl; pH 7.0) at room temperature on a CLARIOstar microplate reader (BMG Labtech). Initial rates were determined, and data were fitted by linear regression using GraphPad Prism software, version 9.1.2.
(§2) In order to determine inhibition of FSP1 by CPBA, FSP1 activity was measured […] either CPBA or iFSP1 as a positive control. In vitro FSP1 oxidoreductase activity assays were performed using recombinant, purified murine or human FSP1, NADH, and resazurine or coenzyme-Q1 (coQ1) as electron acceptor molecules as described above (see FIG. 19).
(§3) In vitro FSP1 activity assays with human (see FIG. 22 C) or murine (see FIG. 22 D) FSP1 were performed as described above. Shown are NADH consumption assays using recombinant, purified human or mouse FSP1 (hFSP1, mFSP1) and resazurine or coenzyme-Q1 (CoQ1) as electron acceptor molecules.

human FSP1 = target: T2, human FSP1 (Homo sapiens, UniProt Q9BRQ8); test: In vitro FSP1 oxidoreductase (NADH consumption) assay, human FSP1; type: biochemical; settings: resazurine or coQ1 as electron acceptor
T2 construct: His6 (N, cleaved yes); made in house; host or cells: Escherichia coli BL21 pG-Tf2
T2 sequence (Q9BRQ8 1-373): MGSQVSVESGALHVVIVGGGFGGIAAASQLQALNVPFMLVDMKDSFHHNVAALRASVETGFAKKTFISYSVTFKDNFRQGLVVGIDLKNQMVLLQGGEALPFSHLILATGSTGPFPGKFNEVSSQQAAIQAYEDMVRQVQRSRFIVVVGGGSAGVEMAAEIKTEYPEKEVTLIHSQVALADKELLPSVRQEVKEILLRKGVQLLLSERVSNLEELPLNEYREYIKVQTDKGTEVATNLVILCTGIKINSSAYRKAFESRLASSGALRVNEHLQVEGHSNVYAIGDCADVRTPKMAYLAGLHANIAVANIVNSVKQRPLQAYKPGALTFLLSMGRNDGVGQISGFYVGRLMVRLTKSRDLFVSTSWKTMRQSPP
Protocol: as §1, §2, §3

[2] = system: mouse embryonic fibroblasts (MEFs), Hepa 1-6 mouse hepatocellular carcinoma cells; test: Concentration-dependent toxicity of FIN56 with CPBA or iFSP1 in mouse cells; type: cell-based; settings: for sensitization to FIN56-induced ferroptosis in mouse cells: MEFs or Hepa 1-6 cells
Protocol: Cells were seeded onto 96-well plates (5,000 cells per well), and treated with serial dilutions of ferroptosis-inducing compounds (erastin, BSO, RSL3, FIN56) or cytotoxic drugs (staurosporine, nocodazole, tunicamycin, paclitaxel, etoposide, menadione, rotenone, FCCP, carboplatin) in the absence or presence of CPBA or iFSP1 (100 μM or 10 μM, respectively; unless stated otherwise) or the DMSO solvent control. Ferroptotic cell death was evaluated by incubating in the absence or presence of liproxstatin-1 (100 nM), ferrostatin-1 (200 nM), or deferoxamine (100 μM). Cell viability was assessed after 16 h using AquaBluer as an indicator of viable cells according to the manufacturer's recommendations (MultiTarget Pharmaceuticals, LLC). Fluorescence (excitation, 540 nm; emission, 590 nm) was analyzed on a Clariostar microplater reader.
In order to test concentration-dependent toxicity of treatment with FIN56 and either CPBA or iFSP1, we treated mouse embryonic fibroblasts (MEFs, see FIG. 21A), or Hepa 1-6 mouse hepatocellular carcinoma cells (see FIG. 21B) with DMSO solvent control, or with the indicated concentrations of CPBA or iFSP1. Ferroptotic cell death was assessed by incubation in the absence or presence of liproxstatin-1 (lip-1; A, 500 nM; B, 250 nM).

SMILES | ferroptosis sensitization depending on FSP1 membrane targeting [1] | inhibition of murine FSP1 activity (murine FSP1) | inhibition of human FSP1 activity (human FSP1) | concentrations that are non-specifically toxic to cells ([2]; 16 h) [µM] | sensitization to FIN56-induced ferroptosis in mouse cells [2]
Cc1ccc(-c2c(C#N)c(N)n3c(nc4ccccc43)c2C#N)cc1 [iFSP1, reference compound] | sensitize FSP1-proficient cells to ferroptosis only if FSP1 can be targeted to membranes | has no effect on mFSP1; also recorded: much less active against murine FSP1 | is an inhibitor of human FSP1 | > 10 | does not have an effect on mouse cell lines
O=C(Nc1ccccc1C(=O)O)c1ccc(Oc2ccc(C(=O)Nc3ccccc3C(=O)O)cc2)cc1 [CPBA, 2-[[4-[4-[(2-carboxyphenyl)carbamoyl]phenoxy]benzoyl]amino]-benzoic acid] | sensitize FSP1-proficient cells to ferroptosis only if FSP1 can be targeted to membranes | inhibits human and murine FSP1 activity; also recorded: much more effective inhibition of murine FSP1 by CPBA compared to iFSP1 | inhibits human and murine FSP1 activity | – | sensitizes MEFs or Hepa 1-6 cells to FIN56-induced ferroptosis
